In patent US10835533B2, “1 -((3S,4R)-4-(3-fluorophenyl)-1-(2-methoxyethyl)pyrrolidin-3-yl)-3-(4-methyl-3-(2-methylpyrimidin-5-yl)-1-phenyl-1H-pyrazol-5-yl)urea as a TrkA kinase inhibitor” (Array BioPharma Inc., priority 2014, dated 2020):

Columns and labels:
Test in all cases: KinaseProfiler kinase profiling
Format in all cases: biochemical
Settings in all cases: 10 μM, ATP near Km
[1] = target: T1, EphA3 (Homo sapiens, UniProt P29320)
T1 construct: purchased Millipore, Inc. (KinaseProfiler service)
T1 sequence (P29320 21-983): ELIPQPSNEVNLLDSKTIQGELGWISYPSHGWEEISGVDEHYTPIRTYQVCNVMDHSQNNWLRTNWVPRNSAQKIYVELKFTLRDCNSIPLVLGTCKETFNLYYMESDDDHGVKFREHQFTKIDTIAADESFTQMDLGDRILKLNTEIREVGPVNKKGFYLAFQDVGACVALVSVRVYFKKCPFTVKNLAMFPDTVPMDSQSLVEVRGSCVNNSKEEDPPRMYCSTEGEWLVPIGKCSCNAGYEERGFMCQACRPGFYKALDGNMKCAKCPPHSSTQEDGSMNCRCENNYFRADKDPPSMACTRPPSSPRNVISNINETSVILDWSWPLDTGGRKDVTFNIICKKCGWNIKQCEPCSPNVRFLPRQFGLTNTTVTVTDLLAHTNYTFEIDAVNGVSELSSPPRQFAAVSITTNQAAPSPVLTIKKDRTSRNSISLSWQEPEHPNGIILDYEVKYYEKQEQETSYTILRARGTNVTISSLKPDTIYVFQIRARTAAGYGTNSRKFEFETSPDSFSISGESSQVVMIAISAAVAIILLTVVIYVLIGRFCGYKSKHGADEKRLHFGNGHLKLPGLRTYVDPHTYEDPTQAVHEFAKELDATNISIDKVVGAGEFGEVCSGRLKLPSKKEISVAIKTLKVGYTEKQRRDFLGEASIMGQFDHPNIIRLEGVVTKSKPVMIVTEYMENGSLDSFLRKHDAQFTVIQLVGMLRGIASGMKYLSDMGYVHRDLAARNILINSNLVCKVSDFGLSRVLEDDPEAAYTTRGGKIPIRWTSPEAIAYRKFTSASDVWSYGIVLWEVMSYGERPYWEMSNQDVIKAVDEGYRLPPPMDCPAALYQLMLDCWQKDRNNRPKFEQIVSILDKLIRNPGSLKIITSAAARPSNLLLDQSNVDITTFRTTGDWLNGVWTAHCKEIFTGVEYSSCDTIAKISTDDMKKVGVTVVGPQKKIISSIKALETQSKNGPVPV
Procedure: (§1) Compound 1 was tested for off-target kinase activity at a concentration of 10 μM by Millipore, Inc. in their KinaseProfiler™ service against all the kinases available in their full kinase panel. Compound 1 was run in duplicate at a concentration of ATP near the Km for each individual kinase according to Millipore's specifications. Data are reported as percent of control (POC) and are the average of the two replicates.

[2] = target: T2, NEK3 (Homo sapiens, UniProt P51956)
T2 construct: purchased Millipore, Inc. (KinaseProfiler service)
Procedure: as §1

[3] = target: T3, ULK2 (Homo sapiens, UniProt Q8IYT8)
T3 construct: purchased Millipore, Inc. (KinaseProfiler service)
Procedure: as §1

[4] = target: T4, SIK (Homo sapiens, UniProt P57059)
T4 construct: purchased Millipore, Inc. (KinaseProfiler service)
T4 sequence (P57059 whole entry): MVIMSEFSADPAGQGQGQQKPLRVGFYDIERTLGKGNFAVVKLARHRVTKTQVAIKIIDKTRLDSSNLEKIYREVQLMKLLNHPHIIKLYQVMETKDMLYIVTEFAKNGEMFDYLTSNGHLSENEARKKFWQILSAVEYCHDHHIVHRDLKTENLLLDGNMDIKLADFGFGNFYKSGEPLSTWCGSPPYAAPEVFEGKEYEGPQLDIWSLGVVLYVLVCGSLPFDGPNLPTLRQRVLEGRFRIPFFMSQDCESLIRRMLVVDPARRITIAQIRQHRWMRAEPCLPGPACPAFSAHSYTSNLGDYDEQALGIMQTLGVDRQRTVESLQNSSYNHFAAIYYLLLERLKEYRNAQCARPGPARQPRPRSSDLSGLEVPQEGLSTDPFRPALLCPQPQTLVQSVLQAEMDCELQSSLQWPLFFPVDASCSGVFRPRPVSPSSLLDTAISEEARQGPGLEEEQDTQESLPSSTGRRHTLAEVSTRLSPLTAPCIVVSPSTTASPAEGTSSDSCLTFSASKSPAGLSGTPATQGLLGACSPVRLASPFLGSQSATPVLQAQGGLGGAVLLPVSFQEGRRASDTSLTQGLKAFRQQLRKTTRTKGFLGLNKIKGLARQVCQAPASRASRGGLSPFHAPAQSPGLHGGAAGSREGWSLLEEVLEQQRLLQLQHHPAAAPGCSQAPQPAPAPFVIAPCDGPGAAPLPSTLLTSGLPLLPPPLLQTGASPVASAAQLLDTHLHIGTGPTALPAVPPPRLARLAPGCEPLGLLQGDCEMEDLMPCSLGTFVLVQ
Procedure: as §1

[5] = target: T5, MARK1 (Homo sapiens, UniProt Q9P0L2)
T5 construct: purchased Millipore, Inc. (KinaseProfiler service)
Procedure: as §1

[6] = target: T6, PAK5 (Homo sapiens, UniProt Q9P286)
T6 construct: purchased Millipore, Inc. (KinaseProfiler service)
Procedure: as §1

[7] = target: T7, EphA2 (Homo sapiens, UniProt P29317)
T7 construct: purchased Millipore, Inc. (KinaseProfiler service)
Procedure: as §1

[8] = target: T8, JAK2 (Homo sapiens, UniProt O60674)
T8 construct: purchased Millipore, Inc. (KinaseProfiler service)
Procedure: as §1

[9] = target: T9, FGFR1 (Homo sapiens, UniProt P11362)
T9 construct: purchased Millipore, Inc. (KinaseProfiler service)
Procedure: as §1

[10] = target: T10, MAPKAP-K2 (Homo sapiens, UniProt P49137)
T10 construct: purchased Millipore, Inc. (KinaseProfiler service)
Procedure: as §1

[11] = target: T11, VRK2 (Homo sapiens, UniProt Q86Y07)
T11 construct: purchased Millipore, Inc. (KinaseProfiler service)
Procedure: as §1

[12] = target: T12, Abl2 (Homo sapiens, UniProt P42684)
T12 construct: purchased Millipore, Inc. (KinaseProfiler service)
Procedure: as §1

[13] = target: T13, TSSK2 (Homo sapiens, UniProt Q96PF2)
T13 construct: purchased Millipore, Inc. (KinaseProfiler service)
Procedure: as §1

[14] = target: T14, BTK (Homo sapiens, UniProt Q06187)
T14 construct: purchased Millipore, Inc. (KinaseProfiler service)
Procedure: as §1

[15] = target: T15, IRAK1 (Homo sapiens, UniProt P51617)
T15 construct: purchased Millipore, Inc. (KinaseProfiler service)
T15 sequence (P51617 whole entry): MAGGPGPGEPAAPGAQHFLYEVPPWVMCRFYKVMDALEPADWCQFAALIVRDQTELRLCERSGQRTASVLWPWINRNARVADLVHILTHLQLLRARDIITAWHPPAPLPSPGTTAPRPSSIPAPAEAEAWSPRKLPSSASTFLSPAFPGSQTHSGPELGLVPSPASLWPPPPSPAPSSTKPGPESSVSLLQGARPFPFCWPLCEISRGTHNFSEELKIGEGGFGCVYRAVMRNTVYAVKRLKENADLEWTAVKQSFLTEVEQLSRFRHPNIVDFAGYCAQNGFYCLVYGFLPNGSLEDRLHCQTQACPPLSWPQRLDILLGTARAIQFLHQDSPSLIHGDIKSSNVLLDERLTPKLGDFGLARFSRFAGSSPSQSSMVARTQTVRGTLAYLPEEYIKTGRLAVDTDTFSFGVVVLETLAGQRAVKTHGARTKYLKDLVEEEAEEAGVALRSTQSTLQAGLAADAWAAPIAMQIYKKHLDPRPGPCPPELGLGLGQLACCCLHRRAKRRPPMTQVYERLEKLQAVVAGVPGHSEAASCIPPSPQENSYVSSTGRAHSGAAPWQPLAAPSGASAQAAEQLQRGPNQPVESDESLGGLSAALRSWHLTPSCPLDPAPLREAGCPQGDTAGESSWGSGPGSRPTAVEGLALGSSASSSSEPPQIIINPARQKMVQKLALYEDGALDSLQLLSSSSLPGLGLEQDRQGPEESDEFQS
Procedure: as §1

[16] = target: T16, SGK2 (Homo sapiens, UniProt Q9HBY8)
T16 construct: purchased Millipore, Inc. (KinaseProfiler service)
Procedure: as §1

[17] = target: T17, MKK6 (Homo sapiens, UniProt P52564)
T17 construct: purchased Millipore, Inc. (KinaseProfiler service)
Procedure: as §1

[18] = target: T18, PTK6 (Homo sapiens, UniProt Q13882)
T18 construct: purchased Millipore, Inc. (KinaseProfiler service)
Procedure: as §1

[19] = target: T19, Lck (Homo sapiens, UniProt P06239)
T19 construct: purchased Millipore, Inc. (KinaseProfiler service)
T19 sequence (P06239 whole entry): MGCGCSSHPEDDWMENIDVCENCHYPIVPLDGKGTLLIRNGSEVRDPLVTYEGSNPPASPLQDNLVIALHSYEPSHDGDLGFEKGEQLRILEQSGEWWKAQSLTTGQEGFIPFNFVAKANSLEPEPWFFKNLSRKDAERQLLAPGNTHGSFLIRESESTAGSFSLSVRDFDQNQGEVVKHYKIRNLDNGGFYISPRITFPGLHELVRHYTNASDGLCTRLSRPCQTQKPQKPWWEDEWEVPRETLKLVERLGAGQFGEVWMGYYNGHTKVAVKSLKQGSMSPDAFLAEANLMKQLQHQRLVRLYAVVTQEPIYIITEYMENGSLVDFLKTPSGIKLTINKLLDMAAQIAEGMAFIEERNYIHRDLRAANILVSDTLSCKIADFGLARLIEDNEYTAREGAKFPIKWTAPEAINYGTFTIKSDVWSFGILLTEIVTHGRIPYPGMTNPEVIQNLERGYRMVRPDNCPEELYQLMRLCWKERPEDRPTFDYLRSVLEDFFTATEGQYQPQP
Procedure: as §1

[20] = target: T20, Syk (Homo sapiens, UniProt P43405)
T20 construct: purchased Millipore, Inc. (KinaseProfiler service)
Procedure: as §1

[21] = target: T21, IGF-1R Activated (Homo sapiens, UniProt P08069)
T21 construct: purchased Millipore, Inc. (KinaseProfiler service)
Procedure: as §1

[22] = target: T22, PKD2 (Homo sapiens, UniProt Q9BZL6)
T22 construct: purchased Millipore, Inc. (KinaseProfiler service)
T22 sequence (Q9BZL6 whole entry): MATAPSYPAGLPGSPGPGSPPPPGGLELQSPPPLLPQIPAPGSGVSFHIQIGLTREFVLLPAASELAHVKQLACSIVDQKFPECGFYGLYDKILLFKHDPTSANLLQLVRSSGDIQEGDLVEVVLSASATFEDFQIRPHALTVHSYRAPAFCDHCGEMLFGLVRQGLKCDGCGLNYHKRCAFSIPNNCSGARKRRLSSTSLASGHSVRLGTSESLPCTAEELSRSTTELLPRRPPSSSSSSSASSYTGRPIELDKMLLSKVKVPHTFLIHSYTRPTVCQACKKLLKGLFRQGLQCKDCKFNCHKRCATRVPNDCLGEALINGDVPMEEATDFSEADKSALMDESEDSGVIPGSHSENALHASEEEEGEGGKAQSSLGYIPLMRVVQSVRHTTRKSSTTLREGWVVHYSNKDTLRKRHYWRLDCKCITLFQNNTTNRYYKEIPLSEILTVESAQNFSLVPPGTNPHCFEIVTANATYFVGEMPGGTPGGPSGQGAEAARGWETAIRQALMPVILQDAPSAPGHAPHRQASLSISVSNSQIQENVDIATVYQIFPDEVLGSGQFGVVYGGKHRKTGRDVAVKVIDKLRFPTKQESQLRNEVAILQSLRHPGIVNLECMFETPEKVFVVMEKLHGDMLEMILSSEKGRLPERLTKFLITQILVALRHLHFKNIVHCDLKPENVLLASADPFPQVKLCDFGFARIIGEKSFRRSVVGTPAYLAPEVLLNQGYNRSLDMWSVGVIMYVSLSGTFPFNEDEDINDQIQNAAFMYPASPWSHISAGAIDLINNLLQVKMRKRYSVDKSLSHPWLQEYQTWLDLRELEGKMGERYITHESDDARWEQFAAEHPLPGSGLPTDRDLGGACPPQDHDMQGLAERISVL
Procedure: as §1

[23] = target: T23, Rsk1 (Homo sapiens, UniProt Q15418)
T23 construct: purchased Millipore, Inc. (KinaseProfiler service)
T23 sequence (Q15418 whole entry): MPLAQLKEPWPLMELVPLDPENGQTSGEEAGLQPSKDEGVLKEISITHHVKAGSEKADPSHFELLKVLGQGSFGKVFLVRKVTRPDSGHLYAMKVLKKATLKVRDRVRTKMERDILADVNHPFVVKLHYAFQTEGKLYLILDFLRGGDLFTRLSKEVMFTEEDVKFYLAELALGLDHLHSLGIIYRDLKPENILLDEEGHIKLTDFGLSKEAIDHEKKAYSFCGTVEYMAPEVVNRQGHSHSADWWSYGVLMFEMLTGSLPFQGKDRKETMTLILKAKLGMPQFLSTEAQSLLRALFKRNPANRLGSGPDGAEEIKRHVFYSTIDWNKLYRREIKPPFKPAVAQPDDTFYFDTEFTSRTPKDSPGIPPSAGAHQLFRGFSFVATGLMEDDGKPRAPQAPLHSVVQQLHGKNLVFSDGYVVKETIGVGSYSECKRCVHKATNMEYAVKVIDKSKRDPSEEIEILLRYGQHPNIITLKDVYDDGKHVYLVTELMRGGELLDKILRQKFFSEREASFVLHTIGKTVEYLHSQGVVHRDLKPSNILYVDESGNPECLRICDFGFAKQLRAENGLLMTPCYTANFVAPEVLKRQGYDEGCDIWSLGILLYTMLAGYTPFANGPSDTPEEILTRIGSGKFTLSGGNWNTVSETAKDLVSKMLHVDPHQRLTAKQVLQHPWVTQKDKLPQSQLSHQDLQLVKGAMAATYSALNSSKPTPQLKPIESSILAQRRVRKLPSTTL
Procedure: as §1

[24] = target: T24, CLK3 (Homo sapiens, UniProt P49761)
T24 construct: purchased Millipore, Inc. (KinaseProfiler service)
Procedure: as §1

[25] = target: T25, Flt1 (Homo sapiens, UniProt P17948)
T25 construct: purchased Millipore, Inc. (KinaseProfiler service)
Procedure: as §1

[26] = target: T26, MST2 (Homo sapiens, UniProt Q13188)
T26 construct: purchased Millipore, Inc. (KinaseProfiler service)
Procedure: as §1

[27] = target: T27, CK1gamma3 (Homo sapiens, UniProt Q9Y6M4)
T27 construct: purchased Millipore, Inc. (KinaseProfiler service)
Procedure: as §1

[28] = target: T28, PASK (Homo sapiens, UniProt Q96RG2)
T28 construct: purchased Millipore, Inc. (KinaseProfiler service)
Procedure: as §1

[29] = target: T29, HIPK3 (Homo sapiens, UniProt Q9H422)
T29 construct: purchased Millipore, Inc. (KinaseProfiler service)
Procedure: as §1

[30] = target: T30, JAK3 (Homo sapiens, UniProt P52333)
T30 construct: purchased Millipore, Inc. (KinaseProfiler service)
Procedure: as §1

[31] = target: T31, PKAC-alpha (Homo sapiens, UniProt P17612)
T31 construct: purchased Millipore, Inc. (KinaseProfiler service)
Procedure: as §1

[32] = target: T32, Plk2 (Homo sapiens, UniProt Q9NYY3)
T32 construct: purchased Millipore, Inc. (KinaseProfiler service)
Procedure: as §1

[33] = target: T33, JNK2alpha2 (Homo sapiens, UniProt P45984)
T33 construct: purchased Millipore, Inc. (KinaseProfiler service)
Procedure: as §1

[34] = target: T34, MELK (Homo sapiens, UniProt Q14680)
T34 construct: purchased Millipore, Inc. (KinaseProfiler service)
Procedure: as §1

[35] = target: T35, LOK (Homo sapiens, UniProt O94804)
T35 construct: purchased Millipore, Inc. (KinaseProfiler service)
Procedure: as §1

[36] = target: T36, MSSK1 (Homo sapiens, UniProt Q9UPE1)
T36 construct: purchased Millipore, Inc. (KinaseProfiler service)
Procedure: as §1

[37] = target: T37, SRPK2 (Homo sapiens, UniProt P78362)
T37 construct: purchased Millipore, Inc. (KinaseProfiler service)
Procedure: as §1

[38] = target: T38, CAMK2d (Homo sapiens, UniProt Q13557)
T38 construct: purchased Millipore, Inc. (KinaseProfiler service)
Procedure: as §1

[39] = target: T39, CLK2 (Homo sapiens, UniProt P49760)
T39 construct: purchased Millipore, Inc. (KinaseProfiler service)
Procedure: as §1

[40] = target: T40, MAP3K5 (Homo sapiens, UniProt Q99683)
T40 construct: purchased Millipore, Inc. (KinaseProfiler service)
Procedure: as §1

[41] = target: T41, CK1delta (Homo sapiens, UniProt P48730)
T41 construct: purchased Millipore, Inc. (KinaseProfiler service)
T41 sequence (P48730 whole entry): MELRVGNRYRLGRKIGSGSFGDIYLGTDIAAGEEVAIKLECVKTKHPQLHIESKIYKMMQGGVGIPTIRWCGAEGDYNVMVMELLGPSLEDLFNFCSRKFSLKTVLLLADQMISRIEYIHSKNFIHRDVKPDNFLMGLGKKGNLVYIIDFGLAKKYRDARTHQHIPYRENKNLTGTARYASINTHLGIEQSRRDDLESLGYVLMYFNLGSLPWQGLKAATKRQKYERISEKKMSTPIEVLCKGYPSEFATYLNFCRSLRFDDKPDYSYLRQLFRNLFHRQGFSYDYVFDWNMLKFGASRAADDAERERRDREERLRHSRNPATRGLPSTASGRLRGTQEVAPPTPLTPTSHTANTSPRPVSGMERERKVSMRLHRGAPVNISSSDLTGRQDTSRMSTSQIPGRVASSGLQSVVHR
Procedure: as §1

Compound: COCCN1C[C@@H](NC(=O)Nc2c(C)c(-c3cnc(C)nc3)nn2-c2ccccc2)[C@H](c2cccc(F)c2)C1 [Compound 1, 1-((3S,4R)-4-(3-fluorophenyl)-1-(2-methoxyethyl)pyrrolidin-3-yl)-3-(4-methyl-3-(2-methylpyrimidin-5-yl)-1-phenyl-1H-pyrazol-5-yl)urea]
- Avg POC [1]: 95.5 POC
- Avg POC [2]: 104.5 POC
- Avg POC [3]: 106 POC
- Avg POC [4]: 108 POC
- Avg POC [5]: 100 POC
- Avg POC [6]: 111 POC
- Avg POC [7]: 92.5 POC
- Avg POC [8]: 126 POC
- Avg POC [9]: 117 POC
- Avg POC [10]: 115 POC
- Avg POC [11]: 96 POC
- Avg POC [12]: 110.5 POC
- Avg POC [13]: 108.5 POC
- Avg POC [14]: 114 POC
- Avg POC [15]: 103 POC
- Avg POC [16]: 112 POC
- Avg POC [17]: 107.5 POC
- Avg POC [18]: 106 POC
- Avg POC [19]: 94 POC
- Avg POC [20]: 95.5 POC
- Avg POC [21]: 105 POC
- Avg POC [22]: 94.5 POC
- Avg POC [23]: 102 POC
- Avg POC [24]: 94.5 POC
- Avg POC [25]: 97 POC
- Avg POC [26]: 102 POC
- Avg POC [27]: 104.5 POC
- Avg POC [28]: 137.5 POC
- Avg POC [29]: 90 POC
- Avg POC [30]: 95.5 POC
- Avg POC [31]: 129.5 POC
- Avg POC [32]: 101 POC
- Avg POC [33]: 98.5 POC
- Avg POC [34]: 105.5 POC
- Avg POC [35]: 125.5 POC
- Avg POC [36]: 127.5 POC
- Avg POC [37]: 96.5 POC
- Avg POC [38]: 97.5 POC
- Avg POC [39]: 102 POC
- Avg POC [40]: 101 POC
- Avg POC [41]: 104 POC
